Experimental data from publication PMC3511610 (Pediatric blood & cancer, 2012).
“Also recorded” adds a separate entry of the source.

Columns and labels:
[1] = cited from earlier work
[2] = Vorinostat pharmacokinetics, day 8 cycle 1, noncompartmental
[3] = no reference given, cited from earlier work
[4] = single agent, children with recurrent or refractory cancer; cited from earlier work
[5] = Phase I trial: toxicity, dose-limiting toxicities, MTD; type: in vivo, human (pediatric patients); details: for recommended phase 2 dose, vorinostat part of the combination: with bortezomib
[6] = Bortezomib plasma pharmacokinetics, day 8 cycle 1, three-compartment model; type: in vivo, human (pediatric patients)
NF-κB = NF-κB activity by ELISA in patient PBMCs; type: in vivo, human (pediatric patients)
solid tumor = details: Pediatric Preclinical Testing Program (PPTP); cited from earlier work
Grp78 = Grp78 immunoblot in patient PBMCs; type: in vivo, human (pediatric patients); details: three evaluable of seven samples (four degraded); vs pre-treatment
[7] = prior pediatric single agent trials; cited from earlier work
[8] = Pediatric Preclinical Testing Program (PPTP); cited from earlier work
[9] = Mean, n=6, single intravenous dose of 1.3 mg/m^2, day 8 cycle 1, plasma

## O=C(CCCCCCC(=O)Nc1ccccc1)NO [vorinostat, Vorinostat]
[1]; daily for eight days every 21 days, with bortezomib
  recommended phase 2 regimen in adults with solid tumors, vorinostat dose: 400 mg
[2]; human, serum, po, 180 mg/m^2
  Tmax: 6 h
[2]; mean over patients, dose levels 180–300 mg/m^2 oral, day 8 cycle 1
  mean apparent clearance: 198 L/m^2
[3]; daily
  adult recommended dose: 400 mg
[4]
  DLTs: neutropenia, thrombocytopenia, and hypokalemia
[5]; PO days 1–5 and 8–12, with bortezomib 1.3 mg/m^2/day days 1, 4, 8, 11
  MTD, vorinostat part of the combination: 230 mg/m^2/day
[5]; PO days 1–5 and 8–12 of a 21 day cycle
  recommended phase 2 dose, vorinostat part of the combination: 230 mg/m^2/day
[5]; orally days 1–5 and 8–12 of a 21 day cycle
  recommended phase 2 dose, vorinostat part of the combination: 230 mg/m^2/dose

## CC(C)C[C@H](NC(=O)[C@H](Cc1ccccc1)NC(=O)c1cnccn1)B(O)O [bortezomib, Bortezomib]
[6]; [9]
  Cl (clearance): 9.1 L/hr/m^2
  Vc (volume of distribution in the central compartment): 13 L/m^2
[6]; cycle 1, dosed every three days, suggests accumulation
  plasma concentrations prior to the day 8 dose: low plasma concentrations
[6]; human, plasma, iv, 1.3 mg/m2
  AUC(0-inf): 485 ng·h/mL
  AUC(0-t): 82 ng·h/mL
[1]; days 1, 4, 8, and 11, with vorinostat
  recommended phase 2 regimen in adults with solid tumors, bortezomib dose: 1.3 mg/m^2/dose
NF-κB; Figure 1, 0 vs 24 hours
  pretreatment NF-κB activity levels in PBMCs compared to levels 24 hours after bortezomib administration: the same or increased
NF-κB; PBMCs from solid tumor patients, with vorinostat
  NF-κB activity in PBMCs after bortezomib treatment: did not observe a decrease in NF-κB activity
NF-κB; in approximately half of the patient samples
  NF-κB activation in PBMCs at 24 hours: increase in NF-κB activation
[3]
  adult MTD: 1.3 mg/m^2/day
Solid tumor
  in vivo solid tumor activity: limited to rhabdomyosarcoma, Wilms tumor, osteosarcoma, and medulloblastoma
Grp78
  Grp78 protein expression in PBMCs after bortezomib treatment: no induction of Grp78 detected; also recorded: not able to detect Grp78 induction
[7]
  Dose-limiting toxicities (DLTs): thrombocytopenia, confusion, and febrile neutropenia associated with hypotension and an elevated creatinine
[5]; i.v. days 1, 4, 8, 11, with vorinostat 230 mg/m^2/day, bortezomib not escalated
  MTD, bortezomib part of the combination: 1.3 mg/m^2/day
[8]
  in vitro anti-tumor activity: widespread in vitro anti-tumor activity
